From the supplement of paper PMC11208160

assay: recombinant UMI read abundance after kanamycin selection (control-corrected) (log10(CPM+1)); higher = more efficient recombination; extreme values may be limits of the assay; sequences stand for … in AGTGCAGAGAAAATCGGCCAGTTTTCTCTGCCTGCAGTCCGCATGCCGTGGGACCCCTTGGGTTCTAACCTGTTGCCTAGATTTATGCAGCGGACTGCCTTTCTCCCAAAGTGATAAACCGG…AGGTTGGTTTCACT; site = the 11-nt donor
Method: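 Pooled E. coli donor-specificity screen for the IS621 bridge recombinase. Each library member carries a reprogrammed 11-nt donor and a full-length LE bridge RNA expressed in cis from the natural promoter, with a paired donor-binding loop (8-nt LDG + 4-nt RDG) and a target-binding loop fixed to T5. It is co-electroporated with a T5 target plasmid; recombinase is induced with 0.07 mM IPTG and recombinants are selected on kanamycin. UMIs are counted as CPM, averaged over two biological replicates and corrected by the unselected control. Molecule = full bridge RNA written as DNA, built from the T5 scaffold: LDG = donor specificity nt 1-8, RDG = reverse complement of nt 8-11.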
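Note: IS621 bridge recombinase in Escherichia coli cells against a fixed T5 target plasmid.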

Row | Sequence | recombinant UMI read abundance (log10)
1 | AATCTAACATGGACCGGTTTTCCCGGTAATCCGTATTTGCT (site AATGTAACTAG) | 0.245
2 | AATCTAACATGGACCGGTTTTCCCGGTAATCCGTATTTGCT (site AATTTAACTAG) | 0
3 | AATCTGTCATGGACCGGTTTTCCCGGTAATCCGTATTTGAC (site AATATGTCTGT) | 0
4 | AATCTGTCATGGACCGGTTTTCCCGGTAATCCGTATTTGAC (site AATCTGTCTGT) | 0
5 | AATCTGTCATGGACCGGTTTTCCCGGTAATCCGTATTTGAC (site AATGTGTCTGT) | 0.00511
6 | AATCTGTCATGGACCGGTTTTCCCGGTAATCCGTATTTGAC (site AATTTGTCTGT) | 0
7 | AATGAAACATGGACCGGTTTTCCCGGTAATCCGTATTTGCT (site AATGAAACTAG) | 1.94
8 | AATGAAACATGGACCGGTTTTCCCGGTAATCCGTATTTGCT (site AATGCAACTAG) | 0.479
9 | AATGAAACATGGACCGGTTTTCCCGGTAATCCGTATTTGCT (site AATGGAACTAG) | 0
10 | AATGAAACATGGACCGGTTTTCCCGGTAATCCGTATTTGCT (site AATGTAACTAG) | 1.65
11 | AATGAAGCATGGACCGGTTTTCCCGGTAATCCGTATTTGTC (site AATGAAGCTGA) | 2.09
12 | AATGGATCATGGACCGGTTTTCCCGGTAATCCGTATTTGAC (site AATGGATCTGT) | 2.04
13 | AATGTAACATGGACCGGTTTTCCCGGTAATCCGTATTTGCT (site AAAGTAACTAG) | 1.76
14 | AATGTAACATGGACCGGTTTTCCCGGTAATCCGTATTTGCT (site AACGTAACTAG) | 2.22
15 | AATGTAACATGGACCGGTTTTCCCGGTAATCCGTATTTGCT (site AAGGTAACTAG) | 1.84
16 | AATGTAACATGGACCGGTTTTCCCGGTAATCCGTATTTGCT (site AATATAACTAG) | 2.07
17 | AATGTAACATGGACCGGTTTTCCCGGTAATCCGTATTTGCT (site AATCTAACTAG) | 0.276
18 | AATGTAACATGGACCGGTTTTCCCGGTAATCCGTATTTGCT (site AATGAAACTAG) | 0.0158
19 | AATGTAACATGGACCGGTTTTCCCGGTAATCCGTATTTGCT (site AATGCAACTAG) | 0.239
20 | AATGTAACATGGACCGGTTTTCCCGGTAATCCGTATTTGCT (site AATGGAACTAG) | 0
21 | AATGTAACATGGACCGGTTTTCCCGGTAATCCGTATTTGCT (site AATGTAACTAA) | 0.0161
22 | AATGTAACATGGACCGGTTTTCCCGGTAATCCGTATTTGCT (site AATGTAACTAC) | 0.00758
23 | AATGTAACATGGACCGGTTTTCCCGGTAATCCGTATTTGCT (site AATGTAACTAG) | 2.26
24 | AATGTAACATGGACCGGTTTTCCCGGTAATCCGTATTTGCT (site AATGTAACTAT) | 0.0618

Row | Sequence | recombinant UMI read abundance (log10)
25 | AATGTAACATGGACCGGTTTTCCCGGTAATCCGTATTTGCT (site AATGTAACTCG) | 0.0789
26 | AATGTAACATGGACCGGTTTTCCCGGTAATCCGTATTTGCT (site AATGTAACTGG) | 1.14
27 | AATGTAACATGGACCGGTTTTCCCGGTAATCCGTATTTGCT (site AATGTAACTTG) | 0.00409
28 | AATGTAACATGGACCGGTTTTCCCGGTAATCCGTATTTGCT (site AATGTACCTAG) | 0
29 | AATGTAACATGGACCGGTTTTCCCGGTAATCCGTATTTGCT (site AATGTAGCTAG) | 0.332
30 | AATGTAACATGGACCGGTTTTCCCGGTAATCCGTATTTGCT (site AATGTATCTAG) | 1.67
31 | AATGTAACATGGACCGGTTTTCCCGGTAATCCGTATTTGCT (site AATGTCACTAG) | 0.198
32 | AATGTAACATGGACCGGTTTTCCCGGTAATCCGTATTTGCT (site AATGTGACTAG) | 0.422
33 | AATGTAACATGGACCGGTTTTCCCGGTAATCCGTATTTGCT (site AATGTTACTAG) | 1.14
34 | AATGTAACATGGACCGGTTTTCCCGGTAATCCGTATTTGCT (site AATTTAACTAG) | 0.682
35 | AATGTAACATGGACCGGTTTTCCCGGTAATCCGTATTTGCT (site ACTGTAACTAG) | 1.84
36 | AATGTAACATGGACCGGTTTTCCCGGTAATCCGTATTTGCT (site AGTGTAACTAG) | 1.51
37 | AATGTAACATGGACCGGTTTTCCCGGTAATCCGTATTTGCT (site ATTGTAACTAG) | 2.07
38 | AATGTAACATGGACCGGTTTTCCCGGTAATCCGTATTTGCT (site CATGTAACTAG) | 2.37
39 | AATGTAACATGGACCGGTTTTCCCGGTAATCCGTATTTGCT (site GATGTAACTAG) | 1.57
40 | AATGTAACATGGACCGGTTTTCCCGGTAATCCGTATTTGCT (site TATGTAACTAG) | 2.39
41 | AATGTGACATGGACCGGTTTTCCCGGTAATCCGTATTTGCT (site AATGTAACTAG) | 2.04
42 | AATGTGACATGGACCGGTTTTCCCGGTAATCCGTATTTGCT (site AATGTCACTAG) | 0.731
43 | AATGTGACATGGACCGGTTTTCCCGGTAATCCGTATTTGCT (site AATGTGACTAG) | 2.65
44 | AATGTGACATGGACCGGTTTTCCCGGTAATCCGTATTTGCT (site AATGTTACTAG) | 0.751
45 | AATGTGTCATGGACCGGTTTTCCCGGTAATCCGTATTTGAA (site AATGTGTCTAT) | 0.324
46 | AATGTGTCATGGACCGGTTTTCCCGGTAATCCGTATTTGAA (site AATGTGTCTCT) | 0.204
47 | AATGTGTCATGGACCGGTTTTCCCGGTAATCCGTATTTGAA (site AATGTGTCTGT) | 0
48 | AATGTGTCATGGACCGGTTTTCCCGGTAATCCGTATTTGAA (site AATGTGTCTTT) | 2.11

Row | Sequence | recombinant UMI read abundance (log10)
49 | AATGTGTCATGGACCGGTTTTCCCGGTAATCCGTATTTGAC (site AAAGTGTCTGT) | 0
50 | AATGTGTCATGGACCGGTTTTCCCGGTAATCCGTATTTGAC (site AACGTGTCTGT) | 0
51 | AATGTGTCATGGACCGGTTTTCCCGGTAATCCGTATTTGAC (site AAGGTGTCTGT) | 1.02
52 | AATGTGTCATGGACCGGTTTTCCCGGTAATCCGTATTTGAC (site AATATGTCTGT) | 0.433
53 | AATGTGTCATGGACCGGTTTTCCCGGTAATCCGTATTTGAC (site AATCTGTCTGT) | 0
54 | AATGTGTCATGGACCGGTTTTCCCGGTAATCCGTATTTGAC (site AATGAGTCTGT) | 0
55 | AATGTGTCATGGACCGGTTTTCCCGGTAATCCGTATTTGAC (site AATGCGTCTGT) | 0
56 | AATGTGTCATGGACCGGTTTTCCCGGTAATCCGTATTTGAC (site AATGGGTCTGT) | 0
57 | AATGTGTCATGGACCGGTTTTCCCGGTAATCCGTATTTGAC (site AATGTATCTGT) | 1.2
58 | AATGTGTCATGGACCGGTTTTCCCGGTAATCCGTATTTGAC (site AATGTCTCTGT) | 0
59 | AATGTGTCATGGACCGGTTTTCCCGGTAATCCGTATTTGAC (site AATGTGACTGT) | 0.00331
60 | AATGTGTCATGGACCGGTTTTCCCGGTAATCCGTATTTGAC (site AATGTGCCTGT) | 0
61 | AATGTGTCATGGACCGGTTTTCCCGGTAATCCGTATTTGAC (site AATGTGGCTGT) | 0
62 | AATGTGTCATGGACCGGTTTTCCCGGTAATCCGTATTTGAC (site AATGTGTCTAT) | 0.00893
63 | AATGTGTCATGGACCGGTTTTCCCGGTAATCCGTATTTGAC (site AATGTGTCTCT) | 0.028
64 | AATGTGTCATGGACCGGTTTTCCCGGTAATCCGTATTTGAC (site AATGTGTCTGA) | 0
65 | AATGTGTCATGGACCGGTTTTCCCGGTAATCCGTATTTGAC (site AATGTGTCTGC) | 0
66 | AATGTGTCATGGACCGGTTTTCCCGGTAATCCGTATTTGAC (site AATGTGTCTGG) | 0
67 | AATGTGTCATGGACCGGTTTTCCCGGTAATCCGTATTTGAC (site AATGTGTCTGT) | 1.77
68 | AATGTGTCATGGACCGGTTTTCCCGGTAATCCGTATTTGAC (site AATGTGTCTTT) | 0.181
69 | AATGTGTCATGGACCGGTTTTCCCGGTAATCCGTATTTGAC (site AATGTTTCTGT) | 0
70 | AATGTGTCATGGACCGGTTTTCCCGGTAATCCGTATTTGAC (site AATTTGTCTGT) | 0
71 | AATGTGTCATGGACCGGTTTTCCCGGTAATCCGTATTTGAC (site ACTGTGTCTGT) | 0
72 | AATGTGTCATGGACCGGTTTTCCCGGTAATCCGTATTTGAC (site AGTGTGTCTGT) | 0
